Structures can show the parent of a compound that is named as a salt.
Row | SMILES | melting point
1 | c1nc(Nc2ccc3[nH]ccc3c2)c2sc(-c3ccc(CNCCN4CCOCC4)cc3)cc2n1 [Example 24, (1H-Indol-5-yl)-(6-{4-[(2-morpholin-4-yl-ethylamino)-methyl]-phenyl}-thieno[3,2-d]pyrimidin-4-yl)-amine] | 100 to 111 °C
2 | COc1ccc(Nc2ccc(Nc3ccnc4cc(-c5ccc(OC)nc5)sc34)cc2)cc1 [Example 87, N-(4-Methoxy-phenyl)-N′-[2-(6-methoxy-pyridin-3-yl)-thieno[3,2-b]pyridin-7-yl]-benzene-1,4-diamine] | 175 to 184 °C
3 | CN1CCN(Cc2ccc(-c3cc4ncnc(Nc5ccc6[nH]ccc6c5)c4s3)cc2)CC1 (as salt: mesylate) [Example 26, (1H-Indol-5-yl)-{6-[4-(4-methyl-piperazin-1-ylmethyl)-phenyl]-thieno[3,2-d]pyrimidin-4-yl}-amine] | 143 to 150 °C
4 | Cc1ccc(Nc2ccc(Nc3ncnc4cc(-c5ccccc5)sc34)cc2)cc1 [Example 64, N-(6-Phenyl-thieno[3,2-d]pyrimidin-4-yl)-N′-p-tolyl-benzene-1,4-diamine] | 221 to 222 °C
5 | CC(=O)NCCNCc1ccc(-c2cc3ncnc(Nc4ccc5[nH]ccc5c4)c3s2)cc1 [Example 43, N-(2-{4-[4-(1H-Indol-5-ylamino)-thieno[3,2-d]pyrimidin-6-yl]-benzylamino}-ethyl)-acetamide] | 142 to 155 °C
6 | c1nc(Nc2ccc3[nH]ccc3c2)c2sc(-c3ccc(CNCCN4CCNCC4)cc3)cc2n1 [Example 23, (1H-Indol-5-yl)-(6-{4-[(2-piperazin-1-yl-ethylamino)-methyl]-phenyl}-thieno[3,2-d]pyrimidin-4-yl)-amine] | 178 to 191 °C
7 | COC(=O)CCNCc1ccc(-c2cc3ncnc(Nc4ccc5[nH]ccc5c4)c3s2)cc1 (as salt: HCl) [Example 17, 3-{4-[4-(1H-Indol-5-ylamino)-thieno[3,2-d]pyrimidin-6-yl]-benzylamino}-propionic Acid Methyl Ester] | 105 to 118 °C
8 | Fc1ccc(-c2cc3ncnc(Nc4ccc5[nH]ccc5c4)c3s2)cc1Cl [Example 12, [6-(3-Chloro-4-fluoro-phenyl)-thieno[3,2-d]pyrimidin-4-yl]-(1H-indol-5-yl)-amine] | 175 to 183 °C
9 | c1ccc(COCCNc2ccc(Nc3ncnc4cc(-c5ccccc5)sc34)cc2)cc1 [Example 73, N-(2-Benzyloxy-ethyl)-N′-(6-phenyl-thieno[3,2-d]pyrimidin-4-yl)-benzene-1,4-diamine] | 201 to 203 °C
10 | O=C(c1ccco1)N1CCN(Cc2ccc(-c3cc4ncnc(Nc5ccc6[nH]ccc6c5)c4s3)cc2)CC1 [Example 46, Furan-2-yl-(4-{4-[4-(1H-indol-5-ylamino)-thieno[3,2-d]pyrimidin-6-yl]-benzyl}-piperazin-1-yl)-methanone] | 167 to 174 °C
11 | CCOC(=O)CNC(=O)CNCc1ccc(-c2cc3ncnc(Nc4ccc5[nH]ccc5c4)c3s2)cc1 [Example 38, (2-{4-[4-(1H-indol-5-ylamino)-thieno[3,2-d]pyrimidin-6-yl]-benzylamino}-acetylamino)-acetic acid ethyl ester] | 98 to 115 °C
12 | OCCNCCNCc1ccc(-c2cc3ncnc(Nc4ccc5[nH]ccc5c4)c3s2)cc1 (as salt: mesylate) [Example 31, 2-(2-{4-[4-(1H-indol-5-ylamino)-thieno[3,2-d]pyrimidin-6-yl]-benzylamino}-ethylamino)-ethanol] | 78 to 95 °C
13 | c1nc(Nc2ccc3[nH]ccc3c2)c2sc(-c3ccc(CN4CCOCC4)cc3)cc2n1 [Example 37, (1H-Indol-5yl)-[6-(4-morpholin4-ylmethyl-phenyl)-thieno[3,2-d]pyrimidin-4-yl]-amine] | 141 to 152 °C
14 | COCCCNCc1ccc(-c2cc3ncnc(Nc4ccc5[nH]ccc5c4)c3s2)cc1 [Example 22, (1H-Indol-5-yl)-(6-{4-[(3-methoxy-propylamino)-methyl]-phenyl}-thieno[3,2-d]pyrimidin-4-yl)-amine] | 160 to 175 °C
15 | COc1ccc(-c2cc3ncnc(Nc4ccc5[nH]ccc5c4)c3s2)cc1OC [Example 16, [6-(3,4-Dimethoxy-phenyl)-thieno[3,2-d]pyrimidin-4-yl]-(1H-indol-5-yl)-amine] | 171 to 178 °C
16 | CCN(CC)CCCn1ccc2cc(Nc3ncnc4cc(-c5ccccc5)sc34)ccc21 [Example 70, [1-(3-Diethylamino-propyl)-1H-indol-5-yl]-(6-phenyl-thieno[3,2-d]pyrimidin-4-yl) -amine] | 178 to 180 °C

The next lines start with the values.

Row | melting point | SMILES
17 | 175 to 183 °C | O=[N+]([O-])c1cccc(-c2cc3ncnc(Nc4ccc5[nH]ccc5c4)c3s2)c1 [Example 10, (1H-Indol-5-yl)-[6-(3-nitro-phenyl)-thieno[3,2-d]pyrimidin-4-yl]-amine]
18 | 170 to 171 °C | Cc1cccc(Nc2ccc(Nc3ncnc4cc(-c5ccccc5)sc34)cc2)c1 [Example 63, N-(6-Phenyl-thieno[3,2-d]pyrimidin-4-yl)-N′-m-tolyl-benzene-1,4-diamine]
19 | 178 to 189 °C | c1nc(Nc2ccc3[nH]ccc3c2)c2sc(-c3ccsc3)cc2n1 [Example 8, (1H-indol-5-yl)-(6-thiophen-3-yl-thieno[3,2-d]pyrimidin-4-yl)-amine]
20 | 189 to 191 °C | COc1cccc(Nc2ccc(Nc3ncnc4cc(-c5ccccc5)sc34)cc2)c1 [Example 66, N-(3-Methoxy-phenyl)-N′-(6-phenyl-thieno[3,2-d]pyrimidin-4-yl)-benzene-1,4-diamine]
21 | 150 to 180 °C | COc1ccc(-c2cc3ncnc(Nc4ccc5[nH]ccc5c4)c3s2)cc1 [Example 5, (1H-Indol-5-yl)-[6-(4-methoxy-phenyl)-thieno[3,2-d]pyrimidin-4-yl]-amine]
22 | 218 to 220 °C | Cc1cc2cc(Nc3ncnc4cc(-c5ccccc5)sc34)ccc2[nH]1 [Example 68, (2-Methyl-1H-indol-5-yl)-(6-phenyl-thieno[3,2-d]pyrimidin-4-yl)-amine]
23 | 174 to 175 °C | O=Cc1c[nH]c2ccc(Nc3ncnc4cc(-c5ccccc5)sc34)cc12 [Example 74, 5-(6-Phenyl-thieno[3,2-d]pyrimidin-4-ylamino)-1H-indole-3-carbaldehyde]
24 | 140 to 147 °C | CNCc1ccc(-c2cc3ncnc(Nc4ccc5[nH]ccc5c4)c3s2)cc1 (as salt: mesylate) [Example 25, (1H-Indol-5-yl)-[6-(4-methylaminomethyl-phenyl)-thieno[3,2-d]pyrimidin-4-yl]-amine]
25 | 200 to 220 °C | Cc1ccc(-c2cc3ncnc(Nc4ccc5[nH]ccc5c4)c3s2)cc1 [Example 6, (1H-Indol-5-yl)-(6-p-tolyl-thieno[3,2-d]pyrimidin-4-yl)-amine]
26 | 171 to 182 °C | CCc1ccc(-c2cc3ncnc(Nc4ccc5[nH]ccc5c4)c3s2)cc1 [Example 13, [6-(4-Ethyl-phenyl)-thieno[3,2-d]pyrimidin-4-yl]-(1H-indol-5-yl)-amine]
27 | 193 to 205 °C | Fc1ccc(-c2cc3ncnc(Nc4ccc5[nH]ccc5c4)c3s2)cc1 [Example 4, [6-(4-Fluoro-phenyl)-thieno[3,2-d]pyrimidin-4-yl]-(1H-indol-5-yl)-amine]

From patent publication US6492383B1, “Thienopyrimidine and thienopyridine derivatives useful as anticancer agents” (Pfizer Inc., priority 1998, dated 2002)
